Legend:
Format in all cases: in vivo
[1] = test system: streptozotocin-induced Type 1 diabetic model in Wistar rats; experiment: Blood glucose level in streptozotocin-induced Type 1 diabetic model; conditions: extracts 40 mg/kg orally, glibenclamide 3 mg/kg orally
Method: Evaluation of effect of different fractions of fresh leaves of Costus pictus D. Donon streptozotocin-induced Type 1 diabetic model in Wistar rats.
(§1) The study was conducted in adult male Wistar rats weighing 200-250 gm for a period of 40 days (30 days of treatment and 10 days of induction). The animals were randomly divided into seven groups comprising six each. Diabetes was induced in all the groups except the normal control group by the intra peritoneal administration of streptozotocin at 50 mg/kg. After the induction of diabetes, one group was kept as diabetic untreated control and a positive control was maintained in which the animals were treated with standard drug, glibenclamide at 3 mg/kg orally. […] The effect of the different fractions was assessed by measuring the fasting blood glucose level, post prandial blood glucose level, serum insulin levels and glycosylated Hb. The anti hyperlipidemic effect was assessed by the estimation of total cholesterol, triglyceride, LDL cholesterol, HDL cholesterol, VLDL, muscle glycogen and liver glycogen. The antioxidant effects of the different extracts were assessed by the measuring TBARS, superoxide dismutase (SOD), catalase, reduced glutathione (GSH) and glutathione peroxidase levels (GPx). TBARS was determined by TBA assay (Ohkawa et al., 1979), SOD was measured using the nitroblue tetrazolium reduction method (Kakkar et al., 1984), Catalase was assayed using the method described by Aebi (1974). GPx was measured as described by Flohe and Gunzler (1984), GSH was measured as per the method of Jollow et al., (1974). Histopathological examination of pancreas was conducted to assess the antidiabetic effect of the different fractions of Costus pictus D. Don.
Group 3—Positive control—diabetic animals treated with glibenclamide at 3 mg/kg orally.
Group 4—diabetic animals treated with methanolic extract of fresh leaves of Costus pictus D. Don, the extract has low oxalic acid and/or oxalates content (Sample 2 prepared as per Example 1) at 40 mg/kg orally. […]

[2] = test system: streptozotocin-induced Type 1 diabetic model in Wistar rats; experiment: Insulin and glycosylated Hb levels in streptozotocin-induced diabetic rats; conditions: extracts 40 mg/kg orally, glibenclamide 3 mg/kg orally
Method: as §1, with “mg/kg.” for “mg/kg. After the induction of diabetes, one group was kept as diabetic untreated control and a positive control was maintained in which the animals were treated with standard drug, glibenclamide at 3 mg/kg orally.”

[3] = test system: streptozotocin-induced Type 1 diabetic model in Wistar rats; experiment: Antioxidant enzymes and TBARS in streptozotocin-induced diabetic rats; conditions: extracts 40 mg/kg orally, glibenclamide 3 mg/kg orally
Method: as §1, with “mg/kg.” for “mg/kg. After the induction of diabetes, one group was kept as diabetic untreated control and a positive control was maintained in which the animals were treated with standard drug, glibenclamide at 3 mg/kg orally.”

[4] = test system: streptozotocin-induced Type 1 diabetic model in Wistar rats; experiment: Oral glucose tolerance test (post prandial glucose) in streptozotocin-induced diabetic rats; conditions: OGTT, glucose 2.5 g/kg oral gavage
Method: The study was conducted in adult male Wistar rats weighing 200-250 gm for a period of 40 days (30 days of treatment and 10 days of induction). The animals were randomly divided into seven groups comprising six each. Diabetes was induced in all the groups except the normal control group by the intra peritoneal administration of streptozotocin at 50 mg/kg. After the induction of diabetes, one group was kept as diabetic untreated control and a positive control was maintained in which the animals were treated with standard drug, glibenclamide at 3 mg/kg orally. All the other diabetic induced groups were treated with different extracts at 300 mg/kg orally. The effect of the different fractions was assessed by measuring the fasting blood glucose level, post prandial blood glucose level, serum insulin levels and glycosylated Hb. The anti hyperlipidemic effect was assessed by the estimation of total cholesterol, triglyceride, LDL cholesterol, HDL cholesterol, VLDL, muscle glycogen and liver glycogen. The antioxidant effects of the different extracts were assessed by the measuring TBARS, superoxide dismutase (SOD), catalase, reduced glutathione (GSH) and glutathione peroxidase levels (GPx). TBARS was determined by TBA assay (Ohkawa et al., 1979), SOD was measured using the nitroblue tetrazolium reduction method (Kakkar et al., 1984), Catalase was assayed using the method described by Aebi (1974). GPx was measured as described by Flohe and Gunzler (1984), GSH was measured as per the method of Jollow et al., (1974). Histopathological examination of pancreas was conducted to assess the antidiabetic effect of the different fractions of Costus pictus D. Don.
Oral glucose tolerance test (OGTT) was performed following a glucose challenge of 2.5 g/kg by oral gavage. Blood glucose was recorded at 30 min (PPG1), 60 min (PPG2), 120 min (PPG3) and 240 min (PPG4), after the glucose challenge on day 1, day 15 and day 30 of the study.

[5] = test system: streptozotocin-induced Type 1 diabetic model in Wistar rats; experiment: Pancreatic histopathology in streptozotocin-induced diabetic rats; conditions: for beta cell staining in islet of Langerhans (immune histochemistry, in words): FIG. 13-17
Method: as §1, with “mg/kg.” for “mg/kg. After the induction of diabetes, one group was kept as diabetic untreated control and a positive control was maintained in which the animals were treated with standard drug, glibenclamide at 3 mg/kg orally.”

COc1ccc(Cl)cc1C(=O)NCCc1ccc(S(=O)(=O)NC(=O)NC2CCCCC2)cc1 [glibenclamide]
blood glucose levels, 0th day ([1]; 0th day): 321 mg/dL | blood glucose levels, 15th day ([1]; 15th day): 126 mg/dL | blood glucose levels, 30th day ([1]; 30th day): 71 mg/dL | Glycosylated Hb [2]: 0.5 % total Hb | Insulin level [2]: 13 μU/ml | Catalase [3]: 59.36 nM H2O2 decomposed/s/g | GPx [3]: 7.54 U/mg of protein | GSH [3]: 38.12 mg/100 g | SOD [3]: 2.96 U/mg protein | TBARS [3]: 0.80 mM MDA/100 g | PPG1. 1 ([4]; blood glucose at 30 min, day 1): 522.8 | PPG1. 15 ([4]; blood glucose at 30 min, day 15): 318.3 | PPG1. 30 ([4]; blood glucose at 30 min, day 30): 232.1 | PPG2. 1 ([4]; blood glucose at 60 min, day 1): 478.4 | PPG2. 15 ([4]; blood glucose at 60 min, day 15): 217.4 | PPG2. 30 ([4]; blood glucose at 60 min, day 30): 240.4 | PPG3. 1 ([4]; blood glucose at 120 min, day 1): 332.1 | PPG3. 15 ([4]; blood glucose at 120 min, day 15): 115.3 | PPG3. 30 ([4]; blood glucose at 120 min, day 30): 177.3 | PPG4. 1 ([4]; blood glucose at 240 min, day 1): 201.9 | PPG4. 15 ([4]; blood glucose at 240 min, day 15): 104.8 | PPG4. 30 ([4]; blood glucose at 240 min, day 30): 69.8 | beta cell staining in islet of Langerhans (immune histochemistry, in words) ([5]; pancreas of streptozotocin-induced diabetic rats): moderately stained and comparable to group 1 | beta cell staining in islet of Langerhans (immune histochemistry, in words) ([5]; pancreas of streptozotocin-induced diabetic rats, listed as Glibenclamide): moderately stained beta cells | mean number of islets ([5]; pancreas of streptozotocin-induced diabetic rats, normal group 36, untreated diabetic group 5): 18.66 | appearance of islets in pancreas sections (in words) ([5]; versus untreated diabetic control): less shrunken than the untreated diabetic control group

Reference: patent US20180228861A1, “COMPOSITION FOR TREATING DIABETES AND DYSLIPIDEMIA OBTAINED FROM THE EXTRACT OF COSTUS PICTUS D.DON PLANT AND A METHOD OF PREPARING THE SAME” (ARJUNA NATURAL EXTRACTS, LTD., priority 2012, published 2018)
